Assay: RP, Waters ACQUITY UPLC HSS T3, 150 × 2.1 mm, 1.7 µm, 30 °C, 0.4 mL/min, estimated dead time 0.83 min; A: water + 0.2% formic acid; B: 2% water + 98% acetonitrile + 0.2% formic acid; gradient (min/%B) 0/0 2.5/0 7.5/10 10/100 12/100 18/0 25/0
Conditions: stereoisomer not certain

LC retention time [min] | Compound
1.74 | NCCCCCCCCN [1-8-diaminooctane]
9.17 | Cn1cc(CC(N)C(=O)O)c2ccccc21 (configuration not stated) [1-methyltryptophan]
9.71 | O=C(O)Cn1ccc2ccccc21 [1H-indole-1-acetic acid]
10.2 | c1ccc2[nH]ccc2c1 [1H-indole]
1.73 | NC(CCCC(=O)O)C(=O)O (configuration not stated) [2-aminoadipic acid]
5.54 | Nc1cccc(C(=O)O)c1 [3-aminobenzoic acid]
9.54 | O=C(O)C=Cc1cccc(O)c1 [3-coumaric acid]
9.31 | O=C(O)c1cccc(O)c1 [3-hydroxybenzoic acid]
9.23 | CCC(C)C(=O)C(=O)O (configuration not stated) [3-methyl-2-oxovaleric acid]
9.4 | O=Cc1ccc(O)cc1 [4-hydroxybenzaldehyde]
9.39 | CC(C)CC(=O)C(=O)O [4-methyl-2-oxopentanoic acid]
8.32 | CSC[C@H]1O[C@@H](n2cnc3c(N)ncnc32)[C@H](O)[C@@H]1O [5'-S-methyl-5'-thioadenosine]
8.57 | COc1ccc2ncccc2c1 [6-methoxyquinoline]
5.75 | Cn1c[n+](C2OC(CO)C(O)C2O)c2nc(N)[nH]c(=O)c21 (configuration not stated) [7-methylguanosine]
8.91 | CC(=CCNc1ncnc2c1ncn2C1OC(CO)C(O)C1O)CO (stereo not drawn) [9-ribosyl-trans-zeatin]
12.4 | CCCCCCCCCCCCCCCC[C@@H](O)C(=O)O [(R)-2-hydroxystearic acid]
1.55 | O=C[C@@H](O)[C@H](O)[C@H](O)[C@H](O)CO [D-altrose]
1.49 | O=C(COP(=O)(O)O)[C@@H](O)[C@H](O)[C@H](O)CO [D-fructose 1-phosphate]
1.23 | NCCCC[C@H](N)C(=O)O [L-lysine]
1.26 | NCCSCC(N)C(=O)O [L-thialysine]

LC retention time [min] | Compound
1.73 | C[n+]1cccc(C(=O)[O-])c1 [N-methylnicotinate]
8.14 | O=C(O)CCCCC(=O)O [adipic acid]
1.63 | NC(=O)NC1NC(=O)NC1=O (configuration not stated) [allantoin]
9.92 | O=c1cc(-c2ccc(O)cc2)oc2cc(O)cc(O)c12 [apigenin]
5.17 | CC(O)(CC(=O)O)C(=O)O (configuration not stated) [citramalic acid]
1.55 | NC(=O)NCCCC(N)C(=O)O (configuration not stated) [citrulline]
1.62 | Nc1ccnc(=O)[nH]1 [cytosine]
10.9 | C=C1C(=O)OC2C1CCC(=C)C1CCC(=C)C12 (configuration not stated) [dehydrocostus lactone]
10.7 | Cc1cc(O)c2c(c1)C(=O)c1cc(O)cc(O)c1C2=O [emodin]
1.73 | OCC1OC(OCC2OC(O)C(O)C(O)C2O)C(O)C(O)C1O (configuration not stated) [gentiobiose]
1.55 | C[N+](C)(C)CC(=O)[O-] [glycine betaine]
9.98 | O=c1c(O)c(-c2ccc(O)cc2)oc2cc(O)cc(O)c12 [kaempferol]
10.6 | CCC=CCC1C(=O)CCC1CC(=O)OC (configuration not stated) [methyl jasmonate]
3.33 | NC(=O)c1cccnc1 [nicotinamide]
1.73 | O=C(O)C1CCCN1 (configuration not stated) [proline]
9.79 | O=c1c(O)c(-c2ccc(O)c(O)c2)oc2cc(O)cc(O)c12 [quercetin]
7.57 | CC(=CCNc1ncnc2nc[nH]c12)CO [trans-zeatin]
9.27 | COc1cc(C(=O)O)ccc1O [vanillic acid]
9.53 | COc1cc(C=O)ccc1O [vanillin]

Compound | LC retention time [min]
Cc1cc(Cl)ccc1OCC(=O)O [(4-chloro-2-methylphenoxy)acetic acid] | 10.3
O=c1ccc2cc(OC3OC(CO)C(O)C(O)C3O)c(O)cc2o1 (configuration not stated) [esculin hydrate] | 8.95
Oc1cccc2cccnc12 [quinolin-8-ol] | 7.14

— the RepoRT retention time repository (doi:10.1002/minf.201400016)
